Assay results from PMC10509173, “Deep learning driven de novo drug design based on gastric proton pump structures” (Communications Biology, 2023).
Values joined by “and” are separate entries in the source; they are usually repeats but may differ in a detail not shown here. Identical values can stand only once.

Molecular target: H+,K+-ATPase (Sus scrofa, UniProt P19156)
Experiment: Dose-dependent inhibition of H+,K+-ATPase activity, membrane fractions
Conditions: for H+,K+-ATPase activity, raw data of dose-dependent inhibition: single replicate values
[1] = [PCAB] -3.30103 (log, unit not given)
[2] = [PCAB] -3.52288 (log, unit not given)
[3] = [PCAB] -4 (log, unit not given)
[4] = [PCAB] -4.30103 (log, unit not given)
[5] = [PCAB] -4.52288 (log, unit not given)
[6] = [PCAB] -5 (log, unit not given)
[7] = [PCAB] -5.52288 (log, unit not given)
[8] = [PCAB] -6 (log, unit not given)
[9] = [PCAB] -6.30103 (log, unit not given)
[10] = [PCAB] -7 (log, unit not given)
[11] = [PCAB] -8 (log, unit not given)
[12] = [PCAB] -11 (log, unit not given; possibly placeholder for no compound)

Sequence of H+,K+-ATPase (P19156 2-1034 limits assumed): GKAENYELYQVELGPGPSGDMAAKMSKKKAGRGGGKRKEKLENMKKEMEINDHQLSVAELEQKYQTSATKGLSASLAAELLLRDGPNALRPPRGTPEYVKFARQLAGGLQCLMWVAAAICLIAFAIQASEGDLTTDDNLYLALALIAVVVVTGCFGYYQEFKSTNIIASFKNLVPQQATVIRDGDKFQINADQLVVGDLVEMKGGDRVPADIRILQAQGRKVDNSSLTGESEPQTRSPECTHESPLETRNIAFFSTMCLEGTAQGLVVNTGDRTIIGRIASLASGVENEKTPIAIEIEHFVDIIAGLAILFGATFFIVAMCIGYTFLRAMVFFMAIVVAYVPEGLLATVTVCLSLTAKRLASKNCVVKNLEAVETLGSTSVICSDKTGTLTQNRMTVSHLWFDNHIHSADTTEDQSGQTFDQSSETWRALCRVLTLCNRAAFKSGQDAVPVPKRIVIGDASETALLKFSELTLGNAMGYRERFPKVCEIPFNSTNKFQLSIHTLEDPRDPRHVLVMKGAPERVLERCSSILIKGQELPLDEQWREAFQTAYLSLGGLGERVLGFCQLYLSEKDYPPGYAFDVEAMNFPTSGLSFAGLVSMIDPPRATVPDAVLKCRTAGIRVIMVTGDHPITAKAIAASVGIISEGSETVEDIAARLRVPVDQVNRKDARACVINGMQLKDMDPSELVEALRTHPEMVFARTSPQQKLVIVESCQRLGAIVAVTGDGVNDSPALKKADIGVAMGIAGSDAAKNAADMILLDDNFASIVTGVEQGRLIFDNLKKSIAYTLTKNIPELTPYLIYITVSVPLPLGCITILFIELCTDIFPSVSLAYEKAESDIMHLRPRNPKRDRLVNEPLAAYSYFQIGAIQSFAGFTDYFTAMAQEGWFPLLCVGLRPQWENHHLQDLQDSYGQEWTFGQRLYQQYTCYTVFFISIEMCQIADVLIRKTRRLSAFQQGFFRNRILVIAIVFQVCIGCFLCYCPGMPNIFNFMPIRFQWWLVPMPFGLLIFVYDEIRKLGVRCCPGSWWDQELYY
Sequence of H+,K+-ATPase (P18434 whole entry partner): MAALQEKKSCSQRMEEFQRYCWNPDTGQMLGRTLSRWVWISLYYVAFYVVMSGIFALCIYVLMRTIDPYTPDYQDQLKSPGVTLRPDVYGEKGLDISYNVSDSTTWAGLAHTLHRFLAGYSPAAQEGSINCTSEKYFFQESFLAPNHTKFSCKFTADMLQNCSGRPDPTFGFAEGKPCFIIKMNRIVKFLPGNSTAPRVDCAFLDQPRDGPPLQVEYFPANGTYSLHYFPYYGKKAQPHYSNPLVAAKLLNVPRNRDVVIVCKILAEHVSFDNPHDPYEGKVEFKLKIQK

SMILES | IC50 | H+,K+-ATPase activity, raw data of dose-dependent inhibition [1] | H+,K+-ATPase activity, raw data of dose-dependent inhibition [2] | H+,K+-ATPase activity, raw data of dose-dependent inhibition [3] | H+,K+-ATPase activity, raw data of dose-dependent inhibition [4] | H+,K+-ATPase activity, raw data of dose-dependent inhibition [5] | H+,K+-ATPase activity, raw data of dose-dependent inhibition [6] | H+,K+-ATPase activity, raw data of dose-dependent inhibition [7] | H+,K+-ATPase activity, raw data of dose-dependent inhibition [8] | H+,K+-ATPase activity, raw data of dose-dependent inhibition [9] | H+,K+-ATPase activity, raw data of dose-dependent inhibition [10] | H+,K+-ATPase activity, raw data of dose-dependent inhibition [11] | H+,K+-ATPase activity, raw data of dose-dependent inhibition [12]
CN(C)Cc1ccc(OCc2ccccc2OCc2ccccc2)cc1 [DQ-11] | 5.57 ± 0.45 µM | -9.05 and -9.17 and -0.38 and -0.55 and 0.75 and 0.18 | -7.01 and -7.07 and 0.86 and 1.01 and 0.22 and 0.76 | 0.73 and 0.95 and 7.54 and 7.57 and 6.64 and 7.22 | 5.75 and 5.69 and 7.96 (2×) and 7.99 and 7.73 | 10.92 and 10.91 and 16.8 and 13.24 and 16.06 and 16.58 | 34.05 and 32.3 and 39.91 and 37.9 and 37.76 and 40.04 | 63.88 and 61.74 and 70.3 and 67.49 and 63.1 and 68.35 | 89.53 and 87.88 and 83.74 and 79.92 and 83.72 and 84.81 | 90.62 and 87.46 and 94.24 and 93.36 and 93.48 and 92.73 | 95.63 and 90.8 and 99.34 and 102.28 and 88.88 and 100.71 | 97.6 and 94.94 and 102 and 102.29 and 100.82 and 103.84 | 102.26 and 95.06 and 98.26 and 100.19 and 96.56 and 106.72
CNCc1ccc(OCc2ccccc2OCc2ccc(Cl)cc2)cc1 [DQ-21] | 0.28 ± 0.02 µM | -1.36 and -1 and -1.49 and 3.72 and -1.45 and 1.58 | 0.39 and 0.54 and 0.08 and 0.18 and 0.41 and 0.55 | 3.33 and 3.13 and 3.68 and 3.03 and 3.2 and 3.37 | 4.45 and 4.77 and 4.44 and 4.84 and 4.43 and 4.67 | 6.47 and 6.44 and 6.31 and 6.43 and 6.29 and 6.56 | 7.76 and 7.75 and 7.99 (2×) and 7.89 and 7.77 | 11.96 and 12.26 and 11.83 and 11.89 and 11.45 and 12.14 | 23.55 and 22.68 and 22.58 and 21.83 and 22.75 and 23.52 | 36.33 and 33.31 and 34.67 and 35.15 and 34.9 and 34.74 | 76.22 and 75.51 and 71.53 and 74.65 and 69.37 | 101.03 and 99.43 and 98.88 and 100.2 and 98.66 and 98.58 | 102.52 and 101.98 and 100.28 and 101.48 and 100.07 and 102.84
NCc1ccc(OCc2ccccc2OCc2ccccc2)cc1 [DQ-12] | 1.54 ± 0.07 µM | -2.13 and -5.12 and -1.35 and 1.97 and -1.31 and 0.69 | -0.8 and -0.12 and -1.95 (2×) and -1.32 and -0.19 | 0.73 and 0 and -0.35 and -0.11 and -0.2 and 0.01 | 3.34 and 3.14 and -0.81 and -0.94 and -0.85 and -0.15 | 5.83 and 5.43 and 5.22 and 6.02 and 6.1 and 5.29 | 14.6 and 14.36 and 13.48 and 12.93 and 13.73 and 12.81 | 35.47 and 34.66 and 35.13 and 34.7 and 33.05 and 34.53 | 63.22 and 63.5 and 59.87 and 57.62 and 57.1 and 58.43 | 74.96 and 75.04 and 76.55 and 75.62 and 74.4 and 76.41 | 91.01 and 87.51 and 98.57 and 99.1 and 95.69 and 97.51 | 96.05 and 93.52 and 100.03 and 97.19 and 98.53 and 98.62 | 97.64 and 96.4 and 100.03 and 99.55 and 98.47 and 102.15
CNCC#CCn1ccc2cccc(C#Cc3ccccc3)c21 [DQ-14] | > 120 µM | 27.73 and 26.74 and 25.35 and 26.06 | 28.44 and 23.96 and 24.12 and 24.35 | 60.7 and 61.39 and 60.36 and 56.79 | 84.92 and 80.56 and 95.68 and 93.2 and 92.03 and 93.46 | 87.04 and 84.8 and 98.89 and 98.98 and 99.17 and 99.96 | 106.23 and 102.41 and 111.55 and 99.92 and 109.43 and 110.94 | 106.37 and 107.48 and 116.43 and 116.24 and 113.84 and 116.41 | 99.88 and 98.19 and 102.47 and 100.9 and 103.05 and 104.28 | 101.13 and 91.4 and 101.1 and 101.3 | 93.06 and 99.72 and 100.85 and 100.56 and 98.57 | 95.47 and 97.96 and 97.95 and 99.07 and 96.42 and 98.64 | 103.16 and 99.44 and 101.23 and 99.08 and 99.88 and 99.77
CNCC#CCn1ccc2cccc(C#Cc3ccc(C)cc3)c21 [DQ-15] | 49.5 ± 4.9 µM | -1.23 and -0.26 and -1.44 and 5.07 and -1.8 and 2.8 | 9.09 and 3.72 and 0.29 and -0.76 and -0.99 and -0.84 | 11.93 and 13.25 and 13.98 and 12.44 and 11.99 | 53.33 and 67.11 and 32 and 29.38 and 36.06 and 36.79 | 62.91 and 87.02 and 102.29 and 102.11 and 98.15 and 100.59 | 104.78 and 109.76 and 109.66 and 114.82 and 111.02 and 110.28 | 106.28 and 113.44 and 111.13 and 112.65 and 113.7 and 115.05 | 99.17 and 105.14 and 103.4 and 101.49 and 105.23 and 103.02 | 96.59 and 101.3 and 102.53 and 104.37 and 103.52 and 105.02 | 93.78 and 100.85 and 99.97 and 100.06 and 104.3 and 100.32 | 98.75 and 101.8 and 99.85 and 100.74 and 97.88 and 98.55 | 102.57 and 105.77 and 99.66 and 98.21 and 98.11 and 102.51
